Experimental data published in paper PMC12616683, “In Vivo Atlas of Neuroprotective Cyclic Dipeptides Derived from Food Gelatin Using Peptidomics and Feature-Based Molecular Networking” (Journal of Agricultural and Food Chemistry, 2025).
Square brackets hold non-standard residues; d marks the D form. Peptide text beside a SMILES is read from it. pGlu = O=C1CC[CH](C(=O)O)N1

Experiment: FBMN analysis of short peptides in small intestine contents and serum after oral DHG
Conditions: serum, time points 0.5-4 h after oral DHG
For `CCC(C)C(NC(=O)C1CCC(=O)N1)C(=O)O` (stereo not shown) [PyroGlu-Ile] ([pGlu]-Ile-OH; configuration not given here), the “time detected in serum (FBMN)” value was “only detected in the first hour”. With `CC(C)CC(NC(=O)C(N)Cc1ccccc1)C(=O)O` (stereo not drawn) [Phe-Leu] (H-Phe-Leu-OH; configuration not given here) the “time detected in serum (FBMN)” value was ≥ 4 h.

Same assay, conditions: small intestine contents, 30 min after oral DHG, C57 mice; FBMN feature intensity, peptides smaller than 690 Da
In the case of `CC(C)[C@H](NC(=O)CN)C(=O)O` [Gly-Val] (H-Gly-Val-OH), the “Peptide signal (feature intensity) in the small intestine, 30 min” value (“Peptide signal (feature intensity) … 30 min” for short) is reported as 0.00E+00. For `CCC(C)C(NC(=O)C1CCC(=O)N1)C(=O)O` (stereo not shown) [PyroGlu-Ile] ([pGlu]-Ile-OH; configuration not given here), the “Peptide signal (feature intensity) … 30 min” value was 7.74E+05. In the case of `NCC(=O)N[C@@H](Cc1ccc(O)cc1)C(=O)O` [Gly-Tyr] (H-Gly-Tyr-OH), the “Peptide signal (feature intensity) … 30 min” value is reported as 0.00E+00. For `CC(C)C[C@H](NC(=O)[C@@H](N)Cc1ccccc1)C(=O)N[C@@H](CCCCN)C(=O)O` [Phe-Leu-Lys] (H-Phe-Leu-Lys-OH), the “Peptide signal (feature intensity) … 30 min” value was 0.00E+00. In the case of `CC(C)CC1NC(=O)C2CC(O)CN2C1=O` [cyclo(L-Leu-L-Hyp)], the “Peptide signal (feature intensity) … 30 min” value is reported as 9.23E+06. For `CC(C)CC(NC(=O)C(N)Cc1ccccc1)C(=O)O` (stereo not drawn) [Phe-Leu] (H-Phe-Leu-OH; configuration not given here), the “Peptide signal (feature intensity) … 30 min” value was 2.64E+06. With `CC(C)CC1NC(=O)C(Cc2ccccc2)NC1=O` (stereo not shown) [cyclo(Phe-Leu)] the “Peptide signal (feature intensity) … 30 min” value was 1.01E+05. In the case of `CC(C)[C@H](N)C(=O)NCC(=O)N[C@H](C(=O)O)C(C)C` [Val-Gly-Val] (H-Val-Gly-Val-OH), the “Peptide signal (feature intensity) … 30 min” value is reported as 4.35E+07. For `CC(C)C[C@H](NC(=O)[C@@H](N)CO)C(=O)N[C@@H](CCCCN)C(=O)O` [Ser-Leu-Lys] (H-Ser-Leu-Lys-OH), the “Peptide signal (feature intensity) … 30 min” value was 8.94E+05. With `CC(C)CC(NC(=O)C(NC(=O)C(N)C(C)O)C(C)C)C(=O)O` (stereo not drawn) [Thr-Val-Leu] (H-Thr-Val-Leu-OH; configuration not given here) the “Peptide signal (feature intensity) … 30 min” value was 5.29E+05. For `N[C@@H](CCC(=O)O)C(=O)N[C@@H](Cc1ccc(O)cc1)C(=O)O` [Glu-Tyr] (H-Glu-Tyr-OH), the “Peptide signal (feature intensity) … 30 min” value was 6.78E+05.

Same assay, conditions: small intestine contents, 60 min after oral DHG, C57 mice; FBMN feature intensity, peptides smaller than 690 Da
In the case of `CC(C)[C@H](NC(=O)CN)C(=O)O` [Gly-Val] (H-Gly-Val-OH), the “Peptide signal (feature intensity) in the small intestine, 60 min” value (“Peptide signal (feature intensity) … 60 min” below) is reported as 3.54E+06. With `CCC(C)C(NC(=O)C1CCC(=O)N1)C(=O)O` (stereo not shown) [PyroGlu-Ile] ([pGlu]-Ile-OH; configuration not given here) the “Peptide signal (feature intensity) … 60 min” value was 1.17E+06. In the case of `NCC(=O)N[C@@H](Cc1ccc(O)cc1)C(=O)O` [Gly-Tyr] (H-Gly-Tyr-OH), the “Peptide signal (feature intensity) … 60 min” value is reported as 5.39E+06. With `CC(C)C[C@H](NC(=O)[C@@H](N)Cc1ccccc1)C(=O)N[C@@H](CCCCN)C(=O)O` [Phe-Leu-Lys] (H-Phe-Leu-Lys-OH) the “Peptide signal (feature intensity) … 60 min” value was 4.25E+05. For `CC(C)CC1NC(=O)C2CC(O)CN2C1=O` [cyclo(L-Leu-L-Hyp)], the “Peptide signal (feature intensity) … 60 min” value was 0.00E+00. For `CC(C)CC(NC(=O)C(N)Cc1ccccc1)C(=O)O` (stereo not drawn) [Phe-Leu] (H-Phe-Leu-OH; configuration not given here), the “Peptide signal (feature intensity) … 60 min” value was 2.44E+06. With `CC(C)CC1NC(=O)C(Cc2ccccc2)NC1=O` (stereo not shown) [cyclo(Phe-Leu)] the “Peptide signal (feature intensity) … 60 min” value was 0.00E+00. In the case of `CC(C)[C@H](N)C(=O)NCC(=O)N[C@H](C(=O)O)C(C)C` [Val-Gly-Val] (H-Val-Gly-Val-OH), the “Peptide signal (feature intensity) … 60 min” value is reported as 3.24E+07. For `CC(C)C[C@H](NC(=O)[C@@H](N)CO)C(=O)N[C@@H](CCCCN)C(=O)O` [Ser-Leu-Lys] (H-Ser-Leu-Lys-OH), the “Peptide signal (feature intensity) … 60 min” value was 6.69E+05. For `CC(C)CC(NC(=O)C(NC(=O)C(N)C(C)O)C(C)C)C(=O)O` (stereo not drawn) [Thr-Val-Leu] (H-Thr-Val-Leu-OH; configuration not given here), the “Peptide signal (feature intensity) … 60 min” value was 1.54E+05. With `N[C@@H](CCC(=O)O)C(=O)N[C@@H](Cc1ccc(O)cc1)C(=O)O` [Glu-Tyr] (H-Glu-Tyr-OH) the “Peptide signal (feature intensity) … 60 min” value was 4.16E+05.

Same assay, conditions: small intestine contents, 120 min after oral DHG, C57 mice; FBMN feature intensity, peptides smaller than 690 Da
In the case of `CC(C)[C@H](NC(=O)CN)C(=O)O` [Gly-Val] (H-Gly-Val-OH), the “Peptide signal (feature intensity) in the small intestine, 120 min” value (shortened to “Peptide signal (feature intensity) … 120 min”) is reported as 0.00E+00. With `CCC(C)C(NC(=O)C1CCC(=O)N1)C(=O)O` (stereo not shown) [PyroGlu-Ile] ([pGlu]-Ile-OH; configuration not given here) the “Peptide signal (feature intensity) … 120 min” value was 5.33E+05. In the case of `NCC(=O)N[C@@H](Cc1ccc(O)cc1)C(=O)O` [Gly-Tyr] (H-Gly-Tyr-OH), the “Peptide signal (feature intensity) … 120 min” value is reported as 0.00E+00. For `CC(C)C[C@H](NC(=O)[C@@H](N)Cc1ccccc1)C(=O)N[C@@H](CCCCN)C(=O)O` [Phe-Leu-Lys] (H-Phe-Leu-Lys-OH), the “Peptide signal (feature intensity) … 120 min” value was 0.00E+00. With `CC(C)CC1NC(=O)C2CC(O)CN2C1=O` [cyclo(L-Leu-L-Hyp)] the “Peptide signal (feature intensity) … 120 min” value was 5.32E+06. With `CC(C)CC(NC(=O)C(N)Cc1ccccc1)C(=O)O` (stereo not drawn) [Phe-Leu] (H-Phe-Leu-OH; configuration not given here) the “Peptide signal (feature intensity) … 120 min” value was 0.00E+00. With `CC(C)CC1NC(=O)C(Cc2ccccc2)NC1=O` (stereo not shown) [cyclo(Phe-Leu)] the “Peptide signal (feature intensity) … 120 min” value was 8.22E+05. For `CC(C)[C@H](N)C(=O)NCC(=O)N[C@H](C(=O)O)C(C)C` [Val-Gly-Val] (H-Val-Gly-Val-OH), the “Peptide signal (feature intensity) … 120 min” value was 0.00E+00. For `CC(C)C[C@H](NC(=O)[C@@H](N)CO)C(=O)N[C@@H](CCCCN)C(=O)O` [Ser-Leu-Lys] (H-Ser-Leu-Lys-OH), the “Peptide signal (feature intensity) … 120 min” value was 1.60E+06. In the case of `CC(C)CC(NC(=O)C(NC(=O)C(N)C(C)O)C(C)C)C(=O)O` (stereo not drawn) [Thr-Val-Leu] (H-Thr-Val-Leu-OH; configuration not given here), the “Peptide signal (feature intensity) … 120 min” value is reported as 0.00E+00. In the case of `N[C@@H](CCC(=O)O)C(=O)N[C@@H](Cc1ccc(O)cc1)C(=O)O` [Glu-Tyr] (H-Glu-Tyr-OH), the “Peptide signal (feature intensity) … 120 min” value is reported as 0.00E+00.

Same assay, conditions: small intestine contents, 240 min after oral DHG, C57 mice; FBMN feature intensity, peptides smaller than 690 Da
In the case of `CC(C)[C@H](NC(=O)CN)C(=O)O` [Gly-Val] (H-Gly-Val-OH), the “Peptide signal (feature intensity) in the small intestine, 240 min” value (from here on “Peptide signal (feature intensity) … 240 min”) is reported as 2.70E+06. With `CCC(C)C(NC(=O)C1CCC(=O)N1)C(=O)O` (stereo not shown) [PyroGlu-Ile] ([pGlu]-Ile-OH; configuration not given here) the “Peptide signal (feature intensity) … 240 min” value was 0.00E+00. In the case of `NCC(=O)N[C@@H](Cc1ccc(O)cc1)C(=O)O` [Gly-Tyr] (H-Gly-Tyr-OH), the “Peptide signal (feature intensity) … 240 min” value is reported as 2.06E+07. In the case of `CC(C)C[C@H](NC(=O)[C@@H](N)Cc1ccccc1)C(=O)N[C@@H](CCCCN)C(=O)O` [Phe-Leu-Lys] (H-Phe-Leu-Lys-OH), the “Peptide signal (feature intensity) … 240 min” value is reported as 8.08E+05. For `CC(C)CC1NC(=O)C2CC(O)CN2C1=O` [cyclo(L-Leu-L-Hyp)], the “Peptide signal (feature intensity) … 240 min” value was 2.54E+06. In the case of `CC(C)CC(NC(=O)C(N)Cc1ccccc1)C(=O)O` (stereo not drawn) [Phe-Leu] (H-Phe-Leu-OH; configuration not given here), the “Peptide signal (feature intensity) … 240 min” value is reported as 0.00E+00. For `CC(C)CC1NC(=O)C(Cc2ccccc2)NC1=O` (stereo not shown) [cyclo(Phe-Leu)], the “Peptide signal (feature intensity) … 240 min” value was 4.33E+05. With `CC(C)[C@H](N)C(=O)NCC(=O)N[C@H](C(=O)O)C(C)C` [Val-Gly-Val] (H-Val-Gly-Val-OH) the “Peptide signal (feature intensity) … 240 min” value was 4.99E+06. In the case of `CC(C)C[C@H](NC(=O)[C@@H](N)CO)C(=O)N[C@@H](CCCCN)C(=O)O` [Ser-Leu-Lys] (H-Ser-Leu-Lys-OH), the “Peptide signal (feature intensity) … 240 min” value is reported as 4.59E+06. With `CC(C)CC(NC(=O)C(NC(=O)C(N)C(C)O)C(C)C)C(=O)O` (stereo not drawn) [Thr-Val-Leu] (H-Thr-Val-Leu-OH; configuration not given here) the “Peptide signal (feature intensity) … 240 min” value was 1.07E+06. For `N[C@@H](CCC(=O)O)C(=O)N[C@@H](Cc1ccc(O)cc1)C(=O)O` [Glu-Tyr] (H-Glu-Tyr-OH), the “Peptide signal (feature intensity) … 240 min” value was 1.73E+06.
